Test results reported in patent US8563730B2, “Pyrazole and fused pyrazole glucokinase activators” (Takeda San Diego, Inc., priority 2008, dated 2013).
pEC50: −log10 of the molar value. Like-named read-outs stand apart in the source and are kept apart here.

Target: T1, GK (glucokinase, residues 12-465) (Homo sapiens, UniProt P35557)
T1 construct: I.D. No. 1 corresponds to residues 12-465 of glucokinase; made in house; host or cells: DH10b-T1r E. coli
T1 sequence (P35557 with tags, fused parts or gaps isoform P35557-2): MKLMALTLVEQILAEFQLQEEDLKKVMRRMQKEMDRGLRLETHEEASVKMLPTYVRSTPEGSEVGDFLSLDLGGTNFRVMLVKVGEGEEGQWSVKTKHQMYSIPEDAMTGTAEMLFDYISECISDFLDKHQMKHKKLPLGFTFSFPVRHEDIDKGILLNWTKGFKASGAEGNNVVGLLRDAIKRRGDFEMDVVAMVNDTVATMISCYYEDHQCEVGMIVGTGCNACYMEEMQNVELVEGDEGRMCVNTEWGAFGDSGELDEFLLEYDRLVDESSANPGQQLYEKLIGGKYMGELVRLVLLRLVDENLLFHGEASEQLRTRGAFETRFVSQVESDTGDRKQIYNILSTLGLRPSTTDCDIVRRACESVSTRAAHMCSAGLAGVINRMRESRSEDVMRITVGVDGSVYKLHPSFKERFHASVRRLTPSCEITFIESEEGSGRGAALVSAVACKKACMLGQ
Assay: enzymatic glucokinase activity assay (ATP consumption, KinaseGlo luminescence)
Type: biochemical
Details: 5 μM ATP, 5 mM Glucose, reported as bins; for pEC50: Kact = concentration that displays 50% of the maximal increase in GK activity, 60 min, room temperature, read-out: pKact
Outline: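 E. coli-expressed recombinant GK purified by two anion-exchange steps. Reaction in 25 mM Hepes pH 7.2, 10 mM MgCl2, 1 mM DTT, 5 μM ATP, 5 mM glucose, 2% DMSO, 60 min at room temperature. ATP consumption quantified by KinaseGlo luminescence; pKact and % ACTmax derived by non-linear curve fitting.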

[1] = calculated maximal gain in GK enzyme activity at a saturating concentration of the compound, read-out: % ACTmax
[2] = read-out: % ACTmax, calculated maximal gain in GK enzyme activity at a saturating concentration of the compound

N#Cc1cc(S(=O)(=O)C2CC2)c2cnn([C@@H](CC3CCOCC3)C(=O)Nc3ncc(F)s3)c2c1 [Compound 133, (S)-2-(6-cyano-4-(cyclopropylsulfonyl)-1H-indazol-1-yl)-N-(5-fluorothiazol-2-yl)-3-(tetrahydro-2H-pyran-4-yl)propanamide]
pEC50: ≥ 6.50
Emax [1]: 101 to 105%

COc1cc(S(=O)(=O)C2CC2)c2cn(C(CC3CCOCC3)C(=O)Nc3ncc(F)s3)nc2c1 (centres unmarked) [Compound 73, 2-(4-(cyclopropylsulfonyl)-6-methoxy-2H-indazol-2-yl)-N-(5-fluorothiazol-2-yl)-3-(tetrahydro-2H-pyran-4-yl)propanamide]
pEC50: ≤ 4.80
Emax [1]: 90 to 100%

O=C(Nc1ncc(F)s1)C(CC1CCOCC1)n1ncc2c(S(=O)(=O)C3CC3)cncc21 (centres unmarked) [Compound 13, 2-(4-(cyclopropylsulfonyl)-1H-pyrazolo[3,4-c]pyridin-1-yl)-N-(5-fluorothiazol-2-yl)-3-(tetrahydro-2H-pyran-4-yl)propanamide]
pEC50: ≥ 6.50
Emax [2]: 106 to 110%

O=C(Nc1ncc(Cl)s1)[C@@H](CC1CCOCC1)n1cc(S(=O)(=O)C2CCCC2)cn1 [Compound 58, (R)-N-(5-chlorothiazol-2-yl)-2-(4-(cyclopentylsulfonyl)-1H-pyrazol-1-yl)-3-(tetrahydro-2H-pyran-4-yl)propanamide]
pEC50: ≤ 4.80
Emax [1]: 101 to 105%

O=C(Nc1ncc(F)s1)C(CC1CCOCC1)n1cc2c(S(=O)(=O)C3CC3)cncc2n1 (centres unmarked) [Compound 140, 2-(4-(cyclopropylsulfonyl)-2H-pyrazol[3,4-c]pyridin-2-yl)-N-(5-fluorothiazol-2-yl)-3-(tetrahydro-2H-pyran-4-yl)propanamide]
pEC50: ≤ 4.80
Emax [1]: ≤ 90%

O=C(Nc1ncc(Cl)s1)C(CC1CCOCC1)n1cc(NS(=O)(=O)C2CC2)cn1 (centres unmarked) [Compound 9, N-(5-chlorothiazol-2-yl)-2-(4-(cyclopropanesulfonamido)-1H-pyrazol-1-yl)-3-(tetrahydro-2H-pyran-4-yl)propanamide]
pEC50: 4.90 to 5.40
Emax [2]: ≤ 90%

O=C(Nc1cnccn1)[C@@H](CC1CCOCC1)n1ncc2c(S(=O)(=O)C3CC3)cccc21 [Compound 90, (R)-2-(4-(cyclopropylsulfonyl)-1H-indazol-1-yl)-N-(pyrazin-2-yl)-3-(tetrahydro-2H-pyran-4-yl)propanamide]
pEC50: ≤ 4.80
Emax [1]: 90 to 100%

O=C(Nc1ncc(Cl)s1)[C@H](CC1CCOCC1)n1ncc2c(S(=O)(=O)C3CC3)cccc21 [Compound 64, (S)-N-(5-chlorothiazol-2-yl)-2-(4-(cyclopropylsulfonyl)-1H-indazol-1-yl)-3-(tetrahydro-2H-pyran-4-yl)propanamide]
pEC50: ≥ 6.50
Emax [1]: ≥ 111%

O=C(Nc1cnccn1)C(CC1CCCC1)n1ncc2c(S(=O)(=O)C3CC3)cccc21 (centres unmarked) [Compound 61, 3-cyclopentyl-2-(4-(cyclopropylsulfonyl)-1H-indazol-1-yl)-N-(pyrazin-2-yl)propanamide]
pEC50: 5.90 to 6.40
Emax [1]: 90 to 100%

COC(=O)c1cnc(NC(=O)C(CC2CCCC2)n2cc(S(=O)(=O)C3CC3)cn2)s1 (centres unmarked) [Compound 6, Methyl 2-(3-cyclopentyl-2-(4-(cyclopropylsulfonyl)-1H-pyrazol-1-yl)propanamido)thiazole-5-carboxylate]
pEC50: 4.90 to 5.40
Emax [1]: ≥ 111%

O=C(Nc1ncc(F)s1)[C@H](CC1CCOCC1)n1ncc2c(S(=O)(=O)C3CC3)cccc21 [Compound 69, (S)-2-(4-(cyclopropylsulfonyl)-1H-indazol-1-yl)-N-(5-fluorothiazol-2-yl)-3-(tetrahydro-2H-pyran-4-yl)propanamide]
pEC50: ≥ 6.50
Emax [1]: 106 to 110%

O=C(Nc1ncc(Cl)s1)C(CC1CCCC1)n1cc(S(=O)(=O)C2CC2)cn1 (centres unmarked) [Compound 33, N-(5-chlorothiazol-2-yl)-3-cyclopentyl-2-(4-(cyclopropylsulfonyl)-1H-pyrazol-1-yl)propanamide]
pEC50: 5.50 to 5.80
Emax [1]: ≥ 111%

O=C(Nc1cnccn1)C(CC1CCOCC1)n1ncc2c(S(=O)(=O)C3CC3)cc(Cl)cc21 (centres unmarked) [Compound 102, 2-(6-chloro-4-(cyclopropylsulfonyl)-1H-indazol-1-yl)-N-(pyrazin-2-yl)-3-(tetrahydro-2H-pyran-4-yl)propanamide]
pEC50: 5.90 to 6.40
Emax [1]: 90 to 100%

O=C(Nc1ncc(F)s1)C(CC1CCOCC1)n1cc2c(S(=O)(=O)C3CC3)c(F)ccc2n1 (centres unmarked) [Compound 148, 2-(4-(cyclopropylsulfonyl)-5-fluoro-2H-indazol-2-yl)-N-(5-fluorothiazol-2-yl)-3-(tetrahydro-2H-pyran-4-yl)propanamide]
pEC50: 4.90 to 5.40
Emax [1]: ≤ 90%

CS(=O)(=O)c1cccc2c1cnn2C(CC1CCOCC1)C(=O)Nc1ncc(F)s1 (centres unmarked) [Compound 41, N-(5-fluorothiazol-2-yl)-2-(4-(methylsulfonyl)-1H-indazole-1-yl)-3-(tetrahydro-2H-pyran-4-yl)propanamide]
pEC50: 5.50 to 5.80
Emax [1]: ≤ 90%

O=C1CC[C@H](C[C@H](C(=O)Nc2ncc(F)s2)n2cc(S(=O)(=O)C3CC3)cn2)C1 [Compound 56, (R)-2-(4-(cyclopropylsulfonyl)-1H-pyrazol-1-yl)-N-(5-fluorothiazol-2-yl)-3-((R)-3-oxocyclopentyl)propanamide]
pEC50: ≤ 4.80
Emax [1]: ≤ 90%

O=C1CC[C@H](C[C@H](C(=O)Nc2ncc(Cl)s2)n2ncc3c(S(=O)(=O)C4CC4)cccc32)C1 [Compound 114, (R)-N-(5-chlorothiazol-2-yl)-2-(4-(cyclopropylsulfonyl)-1H-indazol-1-yl)-3-((R)-3-oxocyclopentyl)propanamide]
pEC50: ≥ 6.50
Emax [1]: 101 to 105%

O=C(Nc1ncc(F)s1)[C@@H](CC1CCOCC1)n1cc(S(=O)(=O)C2CC2)cn1 [Compound 31, (R)-2-(4-(cyclopropylsulfonyl)-1H-pyrazol-1-yl)-N-(5-fluorothiazol-2-yl)-3-(tetrahydro-2H-pyran-4-yl)propanamide]
pEC50: ≤ 4.80
Emax [1]: ≤ 90%

O=C(Nc1ccc(Cl)cn1)C(CC1CCOCC1)n1cc(S(=O)(=O)C2CC2)cn1 (centres unmarked) [Compound 45, N-(5-chloropyridin-2-yl)-2-(4-(cyclopropylsulfonyl)-1H-pyrazol-1-yl)-3-(tetrahydro-2H-pyran-4-yl)propanamide]
pEC50: 4.90 to 5.40
Emax [1]: ≥ 111%

Cn1ccc(NC(=O)[C@@H](CC2CCOCC2)n2ncc3c(S(=O)(=O)C4CC4)cc(C#N)cc32)n1 [Compound 106, (R)-2-(6-cyano-4-(cyclopropylsulfonyl)-1H-indazol-1-yl)-N-(1-methyl-1H-pyrazol-3-yl)-3-(tetrahydro-2H-pyran-4-yl)propanamide]
pEC50: ≤ 4.80
Emax [1]: 90 to 100%

O=C(Nc1ncc(Cl)s1)[C@H](CC1CCCC1)n1cc(S(=O)(=O)C2CC2)cn1 [Compound 39, (S)-N-(5-chlorothiazol-2-yl)-3-cyclopentyl-2-(4-(cyclopropylsulfonyl)-1H-pyrazol-1-yl)propanamide]
pEC50: 5.50 to 5.80
Emax [1]: ≥ 111%

COc1ccc2c(cnn2[C@H](CC2CCOCC2)C(=O)Nc2ccn(C)n2)c1S(=O)(=O)C1CC1 [Compound 110, (R)-2-(4-(cyclopropylsulfonyl)-5-methoxy-1H-indazol-1-yl)-N-(1-methyl-1H-pyrazol-3-yl)-3-(tetrahydro-2H-pyran-4-yl)propanamide]
pEC50: ≤ 4.80
Emax [1]: 106 to 110%
